Substitutions are numbered along the chain they refer to. Where a SMILES comes first, the peptide text is derived from it.
How the values were obtained:
[1] = molecular target: T1, hTAS1R2 + hTAS1R3 F730L^5.43 (Homo sapiens, UniProt Q7RTX0+Q8TE23, F730L); assay: Calcium response (FLIPR), hTAS1R3 mutant coexpressed with hTAS1R2; type: cell-based; conditions: variant F730L^5.43; for Emax: read-out: maximal signal (% of wt)
T1 construct: expressed in transfected cells; host or cells: HEK293T cells stably expressing G16Gust44
T1 sequence (Q8TE23 20-839): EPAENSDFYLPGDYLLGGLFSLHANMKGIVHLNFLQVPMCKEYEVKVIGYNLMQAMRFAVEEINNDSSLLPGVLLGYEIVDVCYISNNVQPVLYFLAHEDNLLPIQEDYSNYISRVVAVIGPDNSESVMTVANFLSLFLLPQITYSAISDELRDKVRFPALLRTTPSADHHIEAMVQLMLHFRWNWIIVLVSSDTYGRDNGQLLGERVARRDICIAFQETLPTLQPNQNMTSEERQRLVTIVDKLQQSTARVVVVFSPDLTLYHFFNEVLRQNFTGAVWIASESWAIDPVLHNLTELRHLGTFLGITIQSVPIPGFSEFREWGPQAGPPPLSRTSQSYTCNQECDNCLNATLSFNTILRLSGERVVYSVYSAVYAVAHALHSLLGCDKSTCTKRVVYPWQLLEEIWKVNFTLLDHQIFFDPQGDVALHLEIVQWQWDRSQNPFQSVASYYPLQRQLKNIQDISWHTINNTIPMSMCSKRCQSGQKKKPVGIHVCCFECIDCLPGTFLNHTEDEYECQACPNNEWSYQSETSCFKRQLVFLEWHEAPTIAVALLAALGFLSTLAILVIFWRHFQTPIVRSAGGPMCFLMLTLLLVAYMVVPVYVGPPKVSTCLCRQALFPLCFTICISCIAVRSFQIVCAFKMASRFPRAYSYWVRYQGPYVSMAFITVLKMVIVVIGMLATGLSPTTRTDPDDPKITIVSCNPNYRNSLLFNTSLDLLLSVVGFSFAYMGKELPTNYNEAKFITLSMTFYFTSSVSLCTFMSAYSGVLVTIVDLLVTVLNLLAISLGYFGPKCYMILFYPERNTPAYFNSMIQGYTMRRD
T1 sequence (Q7RTX0 21-852 F730L): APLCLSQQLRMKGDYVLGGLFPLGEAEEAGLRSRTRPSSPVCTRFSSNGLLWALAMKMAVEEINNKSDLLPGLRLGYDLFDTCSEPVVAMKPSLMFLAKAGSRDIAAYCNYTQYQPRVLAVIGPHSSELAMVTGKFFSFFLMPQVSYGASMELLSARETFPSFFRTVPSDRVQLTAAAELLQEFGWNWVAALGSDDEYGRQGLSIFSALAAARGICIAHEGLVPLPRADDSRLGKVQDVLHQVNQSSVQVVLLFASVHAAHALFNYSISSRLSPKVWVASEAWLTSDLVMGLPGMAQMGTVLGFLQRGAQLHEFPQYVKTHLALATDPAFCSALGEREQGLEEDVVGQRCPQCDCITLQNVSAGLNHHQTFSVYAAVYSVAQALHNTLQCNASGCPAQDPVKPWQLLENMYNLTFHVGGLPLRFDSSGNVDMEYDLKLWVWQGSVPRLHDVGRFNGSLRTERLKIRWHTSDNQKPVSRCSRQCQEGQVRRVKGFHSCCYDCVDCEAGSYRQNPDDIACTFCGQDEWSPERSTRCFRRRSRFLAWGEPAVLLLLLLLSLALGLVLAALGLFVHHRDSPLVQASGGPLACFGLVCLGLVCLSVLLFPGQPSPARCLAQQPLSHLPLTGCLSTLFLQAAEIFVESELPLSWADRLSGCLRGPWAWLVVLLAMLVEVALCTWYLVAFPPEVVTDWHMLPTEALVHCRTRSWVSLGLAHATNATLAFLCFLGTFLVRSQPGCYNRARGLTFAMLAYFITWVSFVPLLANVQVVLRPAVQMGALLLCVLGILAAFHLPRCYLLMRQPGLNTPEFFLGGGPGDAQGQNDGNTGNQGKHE
In short: (§1)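 HEK293T cells stably expressing chimeric G16Gust44 were transiently transfected with C-terminally HSV-tagged hTAS1R2 and mutant hTAS1R3, then loaded 24 h later with Fluo4-AM for 1 h. Calcium mobilization after sweet-tastant application was read by FLIPR, mock-corrected and expressed as ΔF/F.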

[2] = molecular target: T2, hTAS1R2 + hTAS1R3 A733V^5.46 (Homo sapiens, UniProt Q7RTX0+Q8TE23, A733V); assay: as above; type: cell-based; conditions: variant A733V^5.46; for Emax: read-out: maximal signal (% of wt)
T2 construct: expressed in transfected cells; host or cells: HEK293T cells stably expressing G16Gust44
T2 sequence (Q8TE23 20-839): T1 sequence (Q8TE23 20-839)
T2 sequence (Q7RTX0 21-852 A733V): T1 sequence (Q7RTX0 21-852 F730L) with L710F, A713V
In short: as §1

EC50 [1] [µM] | Emax [1] [%] | EC50 [2] [µM] | Emax [2] [%] | Compound
900 ± 100 | 70 ± 18 | 100 ± 20 | 133 ± 8 | COc1ccc(CCC(=O)c2c(O)cc(O[C@@H]3O[C@H](CO)[C@@H](O)[C@H](O)[C@H]3O[C@@H]3O[C@@H](C)[C@H](O)[C@@H](O)[C@H]3O)cc2O)cc1O [NHDC, neohesperidin dihydrochalcone]
1700 ± 400 | 87 ± 27 | 1100 ± 300 | 92 ± 80 | COC(=O)[C@H](Cc1ccccc1)NC(=O)[C@@H](N)CC(=O)O [aspartame] (HELM PEPTIDE1{D.F.[CO[*:1]]}$$$$V2.0)
